Test results as given in patent publication US20090325270A1, “USE OF 2-HYDROXY-5-OXOPROLINE IN CONJUNCTION WITH ALGAE” (priority 2008, published 2009).

System: pale-green mutant Nannochloropsis
Assay: Growth of algae cultures treated with 2-hydroxy-5-oxoproline (Example One, FIG. 3)
Type: cell-based
Description: At step 130, the pale-green mutant Nannochloropsis may be cultivated in an aqueous environment having an effective amount of 2-hydroxy-5-oxoproline. The effective amount of 2-hydroxy-5-oxoproline may increase the growth rate of the pale-green mutant Nannochloropsis.
1. Light intensity was 600 micro-Einsteins.
2. Temperature was held constant at 25 C.
3. Cultures were inoculated to the same extent (as determined by optical density at […], O.D. 750).
4. The bicarb controls were used because the AB1 chemical, which is the 2-hydroxy-5-oxoproline compound, was dissolved in a bicarbonate buffer. This control was to make sure that differences in growth were not due to the presence of bicarbonate. The bicarb controls contain the same concentration of bicarbonate as the AB1 flasks.
5. The cultures were grown on urea as the nitrogen-source.
The bicarb controls were inoculated with 10 mls of 1.3 M bicarbonate solution (pH 9.5). The AB-1 treated cultures had approximately 0.1 g of 2-hydroxy-5-oxoproline added with the algal inoculum. No treat 2 had approximately 50% more cells inoculated as no treat 1, bicarb 1 and 2 and the AB-1 cultures. […] The difference in slope between the AB-1 cultures and the no-treat 1 and bicarb controls was approximately 50%-60%. Therefore, by feeding 2-hydroxy-5-oxoproline to pale-green mutant Nannochloropsis, a greater growth rate could be achieved, which would allow high cell density cultures to be produced quicker, so the advantages of the pale-green phenotype over the wild-type become apparent.

Compound: O=C1CC[C@@](O)(C(=O)O)N1 [AB-1, 2-hydroxy-5-oxoproline]
- difference in slope (growth) between the AB-1 cultures and the no-treat 1 and bicarb controls (approximately 0.1 g 2-hydroxy-5-oxoproline added with inoculum to 800 mls media, approximately 300 hours, constant illumination 600 micro-Einsteins, 25 C, urea as nitrogen-source): 50%-60%
- growth compared with no treat 2 (approximately 50% more cells inoculated) (approximately 0.1 g 2-hydroxy-5-oxoproline in 800 mls media, approximately 300 hours): grew as if they had been inoculated with more cells than had actually been added
- faster growth than culture without 2-hydroxy-5-oxoproline (as measured by absorbance at 750 nm, effective amount of 2-hydroxy-5-oxoproline): fifty to sixty
